One experiment has as its target T1, BRAF V600E (Homo sapiens, UniProt P15056, V600E).
T1 construct: expressed in transfected cells
Description: Cellular assay of target protein degradation, T-Rex 293 cells stably transfected with HA-BRAF_V600E (HA immunofluorescence, high content imaging). Particulars: T-Rex 293 HA-BRAF V600E; for DC50: half maximal degradation, read-out: BRaf V600E DC50; for Dmax: maximum degradation observed. Format: cell-based. The method in brief: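 Doxycycline-induced (1 ng/mL) T-Rex 293 cells expressing HA-BRAF V600E treated 24 h at 37 °C with compound at 1 μM to 0.1 nM final in 0.1% DMSO. Remaining HA-tagged protein quantified by fixed-cell anti-HA immunofluorescence and high-content imaging; DC50 and Dmax (% of control) derived.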

The target of the next experiment is T2, BRAF G466V (Homo sapiens, UniProt P15056, G466V).
T2 construct: expressed in transfected cells
T2 sequence (P15056 whole entry G466V): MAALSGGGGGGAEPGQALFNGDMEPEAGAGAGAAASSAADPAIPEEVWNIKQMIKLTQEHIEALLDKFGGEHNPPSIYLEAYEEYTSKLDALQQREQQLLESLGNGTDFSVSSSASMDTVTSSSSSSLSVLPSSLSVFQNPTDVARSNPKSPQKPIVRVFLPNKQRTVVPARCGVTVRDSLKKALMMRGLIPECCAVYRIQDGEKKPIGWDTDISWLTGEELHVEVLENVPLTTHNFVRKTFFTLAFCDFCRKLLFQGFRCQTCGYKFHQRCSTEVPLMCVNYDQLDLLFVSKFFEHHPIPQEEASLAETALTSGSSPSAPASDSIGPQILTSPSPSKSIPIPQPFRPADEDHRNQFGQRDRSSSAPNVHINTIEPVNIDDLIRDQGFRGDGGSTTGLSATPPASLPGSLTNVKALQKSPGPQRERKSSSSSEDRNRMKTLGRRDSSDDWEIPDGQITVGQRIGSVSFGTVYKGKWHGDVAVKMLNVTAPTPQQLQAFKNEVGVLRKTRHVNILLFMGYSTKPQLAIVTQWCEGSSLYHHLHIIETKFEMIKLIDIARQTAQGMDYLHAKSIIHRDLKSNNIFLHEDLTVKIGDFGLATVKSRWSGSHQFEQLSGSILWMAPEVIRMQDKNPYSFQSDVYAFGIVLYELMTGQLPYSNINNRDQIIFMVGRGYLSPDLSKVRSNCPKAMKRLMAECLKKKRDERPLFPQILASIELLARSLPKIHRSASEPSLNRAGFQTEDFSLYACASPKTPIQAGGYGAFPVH
Description: Cellular assay of target protein degradation, T-Rex 293 cells stably transfected with HA-BRAF G466V (HA immunofluorescence, high content imaging). Format: cell-based. Particulars: T-Rex 293 HA-BRAF G466V; for DC50: half maximal degradation, read-out: BRaf G466V DC50; for Dmax: maximum degradation observed. The method in brief:
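Doxycycline-induced (0.75 ng/mL) cells treated 24 h at 37 °C with compound from 30 nM to 3 pM (0.1% DMSO). After fixation and permeabilisation, HA-tagged BRAF G466V immunostained and quantified by high-content imaging. DC50 and Dmax (percent of control) derived.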

Bounds are passed on as bounds.

T1 sequence (P15056 whole entry V600E): as the sequence (P15056 whole entry G466V) above, with V466G, V600E counted along it

Regarding `O=C1CC[C@@H](N2Cc3cc(CN4C[C@@H]5CN(c6ccc(-c7cnc8[nH]cc(C(=O)c9c(F)ccc(NS(=O)(=O)N%10CC[C@@H](F)C%10)c9F)c8c7)cc6)C[C@@H]5C4)ccc3C2=O)C(=O)N1` [Compound 77, (3R)-N-[3-(5-{4-[(3aR,6aS)-5-({2-[(3R)-2,6-dioxopiperidin-3-yl]-1-oxo-2,3-dihydro-1H-isoindol-5-yl}methyl)-octahydropyrrolo[3,4-c]pyrrol-2-yl]phenyl}-1H-pyrrolo[2,3-b]pyridine-3-carbonyl)-2,4-difluorophenyl]-3-fluoropyrrolidine-1-sulfonamide], the values for the DC50 at BRAF V600E and at BRAF G466V were 5 to 50 nM and above 30 nM, respectively. This molecule gave a maximal degradation (Dmax) on BRAF V600E of 35 to 70%.
For `O=C1CCC(N2Cc3cc(CN4CCN(c5ccc(-c6cnc7[nH]cc(C(=O)c8c(F)ccc(NS(=O)(=O)N9CC[C@@H](F)C9)c8F)c7c6)cc5)C[C@@H]4CO)ccc3C2=O)C(=O)N1` (stereo partly drawn) [Compound 78, (3R)-N-[3-(5-{4-[(3R)-4-{[2-(2,6-dioxopiperidin-3-yl)-1-oxo-2,3-dihydro-1H-isoindol-5-yl]methyl}-3-(hydroxymethyl)piperazin-1-yl]phenyl}-1H-pyrrolo [2,3-b]pyridine-3-carbonyl)-2,4-difluorophenyl]-3-fluoropyrrolidine-1-sulfonamide] the same measures were above 500 nM, above 30 nM and above 70%.
Consider `COc1cc(N2CC(N3CCN(c4ccc(-c5cnc6[nH]cc(C(=O)c7c(F)ccc(NS(=O)(=O)N8CC[C@@H](F)C8)c7F)c6c5)cc4)CC3)C2)cc2c1C(=O)N(C1CCC(=O)NC1=O)C2` (stereo partly drawn) [Compound 79, (3R)-N-(3-{5-[4-(4-{1-[2-(2,6-dioxopiperidin-3-yl)-7-methoxy-1-oxo-2,3-dihydro-1H-isoindol-5-yl]azetidin-3-yl}piperazin-1-yl)phenyl]-1H-pyrrolo[2,3-b]pyridine-3-carbonyl}-2,4-difluorophenyl)-3-fluoropyrrolidine-1-sulfonamide], for which the figures for the DC50 on BRAF V600E and at BRAF G466V were 5 to 50 nM and above 30 nM, respectively. This molecule also registered a maximal degradation (Dmax) on BRAF V600E of 35 to 70%.
Turning to `O=C1CC[C@H](N2Cc3cc(OCCCN4CC5(C4)CN(c4ccc(-c6cnc7[nH]cc(C(=O)c8c(F)ccc(NS(=O)(=O)N9CC[C@@H](F)C9)c8F)c7c6)cc4)C5)ccc3C2=O)C(=O)N1` [Compound 80, (3R)-N-{3-[5-(4-{6-[3-({2-[(3S)-2,6-dioxopiperidin-3-yl]-1-oxo-2,3-dihydro-1H-isoindol-5-yl}oxy)propyl]-2,6-diazaspiro[3.3]heptan-2-yl}phenyl)-1H-pyrrolo[2,3-b]pyridine-3-carbonyl]-2,4-difluorophenyl}-3-fluoropyrrolidine-1-sulfonamide], on BRAF V600E, the DC50 was below 5 nM and the maximal degradation (Dmax) is 35 to 70%. On BRAF G466V, the DC50 lay in the range of 1 to 10 nM and the Dmax is above 70%.
Turning to `O=C1CC[C@@H](N2Cc3cc(OCCCN4CC5(C4)CN(c4ccc(-c6cnc7[nH]cc(C(=O)c8c(F)ccc(NS(=O)(=O)N9CC[C@@H](F)C9)c8F)c7c6)cc4)C5)ccc3C2=O)C(=O)N1` [Compound 81, (3R)-N-{3-[5-(4-{6-[3-({2-[(3R)-2,6-dioxopiperidin-3-yl]-1-oxo-2,3-dihydro-1H-isoindol-5-yl}oxy)propyl]-2,6-diazaspiro[3.3]heptan-2-yl}phenyl)-1H-pyrrolo[2,3-b]pyridine-3-carbonyl]-2,4-difluorophenyl}-3-fluoropyrrolidine-1-sulfonamide], at BRAF V600E, the DC50 is 5 to 50 nM and the greatest degradation seen (Dmax) lay in the range of 35 to 70%. Further, on BRAF G466V, the DC50 lay in the range of 1 to 10 nM and the greatest degradation seen (Dmax) was above 70%.
Take `O=C1CC[C@H](N2Cc3cc(C[C@@H](O)CN4CCN(c5ccc(-c6cnc7[nH]cc(C(=O)c8c(F)ccc(NS(=O)(=O)N9CC[C@@H](F)C9)c8F)c7c6)cc5)CC4)ccc3C2=O)C(=O)N1` [Compound 82, (3R)-N-{3-[5-(4-{4-[(2R)-3-{2-[(3S)-2,6-dioxopiperidin-3-yl]-1-oxo-2,3-dihydro-1H-isoindol-5-yl}-2-hydroxypropyl]piperazin-1-yl}phenyl)-1H-pyrrolo[2,3-b]pyridine-3-carbonyl]-2,4-difluorophenyl}-3-fluoropyrrolidine-1-sulfonamide]: at BRAF V600E, the half-maximal degradation concentration (DC50) is 5 to 50 nM and the maximal degradation (Dmax) fell in the range of 35 to 70%. In addition, the DC50 on BRAF G466V was above 30 nM.
For `O=C1CC[C@H](N2Cc3cc(C4CN(CC5CCN(c6ccc(-c7cnc8[nH]cc(C(=O)c9c(F)ccc(NS(=O)(=O)N%10CC[C@@H](F)C%10)c9F)c8c7)cc6)CC5)C4)ccc3C2=O)C(=O)N1` [Compound 83, (3R)-N-{3-[5-(4-{4-[(3-{2-[(3S)-2,6-dioxopiperidin-3-yl]-1-oxo-2,3-dihydro-1H-isoindol-5-yl}azetidin-1-yl)methyl]piperidin-1-yl}phenyl)-1H-pyrrolo[2,3-b]pyridine-3-carbonyl]-2,4-difluorophenyl}-3-fluoropyrrolidine-1-sulfonamide], the 50% degradation concentration (DC50) was 50 to 500 nM at BRAF V600E and below 1 nM at BRAF G466V. The greatest degradation seen (Dmax) at BRAF V600E is above 70%; on BRAF G466V, 35 to 70%.
Take `O=C1CC[C@@H](N2Cc3cc(C4CN(CC5CCN(c6ccc(-c7cnc8[nH]cc(C(=O)c9c(F)ccc(NS(=O)(=O)N%10CC[C@@H](F)C%10)c9F)c8c7)cc6)CC5)C4)ccc3C2=O)C(=O)N1` [Compound 84, (3R)-N-{3-[5-(4-{4-[(3-{2-[(3R)-2,6-dioxopiperidin-3-yl]-1-oxo-2,3-dihydro-1H-isoindol-5-yl}azetidin-1-yl)methyl]piperidin-1-yl}phenyl)-1H-pyrrolo[2,3-b]pyridine-3-carbonyl]-2,4-difluorophenyl}-3-fluoropyrrolidine-1-sulfonamide]: at BRAF V600E, the DC50 fell in the range of 5 to 50 nM and the maximal degradation (Dmax) lay in the range of 35 to 70%. Besides, at BRAF G466V, the DC50 was below 1 nM and the Dmax is above 70%.
As for `O=C1CC[C@H](N2Cc3cc(N4CC(CN5C[C@@H]6CN(c7ccc(-c8cnc9[nH]cc(C(=O)c%10c(F)ccc(NS(=O)(=O)N%11CC[C@@H](F)C%11)c%10F)c9c8)cc7)C[C@@H]6C5)C4)ccc3C2=O)C(=O)N1` [Compound 85, (3R)-N-[3-(5-{4-[(3aR,6aS)-5-[(1-{2-[(3S)-2,6-dioxopiperidin-3-yl]-1-oxo-2,3-dihydro-1H-isoindol-5-yl}azetidin-3-yl)methyl]-octahydropyrrolo[3,4-c]pyrrol-2-yl]phenyl}-1H-pyrrolo[2,3-b]pyridine-3-carbonyl)-2,4-difluorophenyl]-3-fluoropyrrolidine-1-sulfonamide], at BRAF V600E, the DC50 was below 5 nM and the Dmax lay in the range of 35 to 70%. For the same molecule, on BRAF G466V, the DC50 fell in the range of 1 to 10 nM and the maximal degradation (Dmax) is above 70%.
Regarding `O=C1CC[C@@H](N2Cc3cc(N4CC(CN5C[C@@H]6CN(c7ccc(-c8cnc9[nH]cc(C(=O)c%10c(F)ccc(NS(=O)(=O)N%11CC[C@@H](F)C%11)c%10F)c9c8)cc7)C[C@@H]6C5)C4)ccc3C2=O)C(=O)N1` [Compound 86, (3R)-N-[3-(5-{4-[(3aR,6aS)-5-[(1-{2-[(3R)-2,6-dioxopiperidin-3-yl]-1-oxo-2,3-dihydro-1H-isoindol-5-yl}azetidin-3-yl)methyl]-octahydropyrrolo[3,4-c]pyrrol-2-yl]phenyl}-1H-pyrrolo[2,3-b]pyridine-3-carbonyl)-2,4-difluorophenyl]-3-fluoropyrrolidine-1-sulfonamide], the 50% degradation concentration (DC50) on BRAF V600E fell in the range of 5 to 50 nM; at BRAF G466V, 1 to 10 nM. For the same molecule, the Dmax on BRAF V600E is 35 to 70%; on BRAF G466V, above 70%.
Regarding `O=C1CC[C@H](N2Cc3cc(C4CCN(CC5CCN(c6ccc(-c7cnc8[nH]cc(C(=O)c9c(F)ccc(NS(=O)(=O)N%10CC[C@@H](F)C%10)c9F)c8c7)cc6F)CC5)CC4)ccc3C2=O)C(=O)N1` [Compound 87, (3R)-N-{3-[5-(4-{4-[(4-{2-[(3S)-2,6-dioxopiperidin-3-yl]-1-oxo-2,3-dihydro-1H-isoindol-5-yl}piperidin-1-yl)methyl]piperidin-1-yl}-3-fluorophenyl)-1H-pyrrolo[2,3-b]pyridine-3-carbonyl]-2,4-difluorophenyl}-3-fluoropyrrolidine-1-sulfonamide], at BRAF V600E, the 50% degradation concentration (DC50) was below 5 nM and the greatest degradation seen (Dmax) was 35 to 70%. Besides, at BRAF G466V, the DC50 is below 1 nM and the maximal degradation (Dmax) was above 70%.
Consider `O=C1CC[C@@H](N2Cc3cc(C4CCN(CC5CCN(c6ccc(-c7cnc8[nH]cc(C(=O)c9c(F)ccc(NS(=O)(=O)N%10CC[C@@H](F)C%10)c9F)c8c7)cc6F)CC5)CC4)ccc3C2=O)C(=O)N1` [Compound 88, (3R)-N-{3-[5-(4-{4-[(4-{2-[(3R)-2,6-dioxopiperidin-3-yl]-1-oxo-2,3-dihydro-1H-isoindol-5-yl}piperidin-1-yl)methyl]piperidin-1-yl}-3-fluorophenyl)-1H-pyrrolo[2,3-b]pyridine-3-carbonyl]-2,4-difluorophenyl}-3-fluoropyrrolidine-1-sulfonamide], for which the 50% degradation concentration (DC50) at BRAF V600E is below 5 nM; on BRAF G466V, below 1 nM. For the same molecule, the greatest degradation seen (Dmax) on BRAF V600E is 35 to 70%; on BRAF G466V it was above 70%.
On to `O=C1CCC(N2Cc3cc(OCCN4CC5(C4)CN(c4ccc(-c6cnc7[nH]cc(C(=O)c8c(F)ccc(NS(=O)(=O)N9CC[C@@H](F)C9)c8F)c7c6)cc4)C5)ccc3C2=O)C(=O)N1` (stereo partly drawn) [Compound 89, (3R)-N-[3-(5-{4-[6-(2-{[2-(2,6-dioxopiperidin-3-yl)-1-oxo-2,3-dihydro-1H-isoindol-5-yl]oxy}ethyl)-2,6-diazaspiro[3.3]heptan-2-yl]phenyl}-1H-pyrrolo[2,3-b]pyridine-3-carbonyl)-2,4-difluorophenyl]-3-fluoropyrrolidine-1-sulfonamide], for which, on BRAF V600E, the 50% degradation concentration (DC50) was below 5 nM and the Dmax was in the range of 35 to 70%. Besides, on BRAF G466V, the DC50 was below 1 nM and the Dmax lay in the range of 35 to 70%.

The values above are taken from patent US12180193B2, “Accelerating fibrosarcoma protein degrading compounds and associated methods of use” (Arvinas Operations, Inc., priority 2020, dated 2024).
